This note sets out measurements from patent publication EP4700025A1, “AMIDE COMPOUND, PHARMACEUTICAL COMPOSITION COMPRISING SAME, AND USE THEREOF” (Suzhou Genhouse Bio Co., Ltd., priority 2023, dated 2024).

One data set relates to HCT-116. Description: CCK8 proliferation inhibition, HCT-116. It counts as cell-based. The conditions noted are these: Homo sapiens, 192 h, CCK8, 8 days after drug treatment. Here is the method: (§1) The above normally growing cells were digested with a cell trypsinization solution, centrifuged, counted, and seeded into a 96-well plate at an appropriate cell density (2000 cells/well) at 100 µL/well. The next day after cell seeding, the compounds at different concentrations were added to the wells. Three replicate wells were set for each concentration point, and a corresponding DMSO negative control group was also set. CCK8 solution was added to each well 8 days after drug treatment. The plate was incubated at 37 °C for a period of time (OD450 of the vehicle group reached 1.0 or higher) before the absorbance at 450 nm was read using a microplate reader. The inhibition rates were calculated, and the EC50 values were determined by fitting using the GraphPad Prism 7.0 software. Table 2. EC50 values of compounds at cellular level

A further data set deals with HCT-116-MTAP^-/-. Description: CCK8 proliferation inhibition, HCT-116-MTAP^-/-. The format is cell-based. The conditions noted are these: Homo sapiens, 192 h; HCT-116-MTAP^-/- (MTAP-deficient); CCK8, 8 days after drug treatment. Here is the method: as §1
Data set [1] concerns SDMA. Description: SDMA Inhibition Assay in HCT-116 cells. The format is cell-based. The conditions noted are these: Homo sapiens, HCT-116, 96 hours. Here is the method: (§2) The next day, the cells were treated with the compounds at different concentrations (with an initial concentration of 10 µM, 5-fold dilution, 9 concentration gradients). After 96 hours, the culture medium was pipetted out and the cells were washed 2 times with 100 µL of PBS. The cells were then fixed with 4% paraformaldehyde and incubated at room temperature for 20 min. The fixative solution was discarded, and the cells were washed with PBS. 150 µL of specialized blocking solution (containing 1% Triton-100) was added to each well for blocking at room temperature for 2 hours, and the plate was washed with PBS to remove excess blocking solution. […] The cells were incubated at 4 °C overnight. The next day, the cells were separately washed 2 times with 1× PBST. […] The cells were incubated at room temperature for 2 hours. The cells were washed 2 times with 1× PBST and 1 time with PBS. Fluorescence signals at 700 nm and 800 nm were separately detected using a Li-COR Odyssey two-color near-infrared laser imager. The inhibition rates were calculated, and the EC50 values were determined by fitting using the GraphPad Prism 7.0 software. Table 3. Inhibition of SDMA by test compounds

Data set [2] relates to SDMA. Description: SDMA Inhibition Assay in HCT-116-MTAP^-/- cells. It counts as cell-based. The conditions noted are these: Homo sapiens, 96 hours. The protocol: as §2
Data set [3] in a line: Mouse brain-to-blood and tumor tissue-to-blood drug concentration ratio (PC-9 tumor-bearing mice). It counts as in vivo, Balb/c-nude female mice. The conditions noted are these: 5 mg/kg PO, PC-9 tumor-bearing mice. Here is the method: Human lung cancer PC-9 cells were cultured in monolayer in vitro using the 1640 culture medium (HyClone) containing 10% fetal bovine serum (BI) and 1% penicillin and streptomycin (Beyotime) in an incubator at 37 °C with 5% CO2. The cells were digested with trypsin 2 to 3 times weekly for passaging. When the saturation degree of the cells was 80% to 90%, the cells were collected, counted, and inoculated. 5 × 10^6 (0.2 mL, 1:1 gel addition) PC-9 cells were subcutaneously inoculated into the right back of Balb/c-nude female mice, and the mice were used for subsequent PK and tissue distribution experiments after the mean tumor volume reached about 500 mm^3. On the day of administration, mice were weighed for actual body weight and the administration volume was calculated. In each group of 9 mice, the compound was administered by single intravenous injection or oral gavage. Whole blood samples were collected via the orbit at prescribed time points. After the blood sample collection, the samples were immediately transferred to labeled commercial sample tubes containing K2-EDTA (0.85 to 1.15 mg), followed by centrifugation (3200× g, 4 °C, 10 min) and plasma collection. The plasma was transferred to a pre-cooled centrifuge tube, frozen in dry ice, and then stored in an ultra-low temperature freezer at -60 °C or lower until the LC-MS/MS analysis was performed. Tumor and brain tissues were collected after the animals were euthanized using CO2 at prescribed time points, frozen in liquid nitrogen, and stored in an ultra-low temperature freezer at -60 °C or lower until the LC-MS/MS analysis was performed. 20 µL of the plasma sample or brain/tumor tissue homogenate was added to 80 µL of an internal standard solution (a 50 ng/mL solution of propafenone in acetonitrile). The plate was sealed using a film sealer at 165 °C, shaken on a micro oscillator (at the maximum vibration speed) for 10 min, and centrifuged at 4000 rpm for 20 min using a low-speed benchtop centrifuge; 10 µL of the supernatant was transferred and added to 90 µL of acetonitrile. The mixture was vortexed and mixed well, and then the plate was sealed using the film sealer at 165 °C. After the mixture was vortexed and mixed well, 1 µL of the supernatant was subjected to LC-MS/MS analysis.
• Brain-to-blood drug concentration ratio of mice at the same time point = drug concentration in brain tissue/drug concentration in plasma • Tumor tissue-to-blood drug concentration ratio of mice at the same time point = drug concentration in tumor tissue/drug concentration in plasma

The next data set concerns A549. Description: CCK8 proliferation inhibition, A549. It counts as cell-based. The conditions noted are these: Homo sapiens, 192 h, CCK8, 8 days after drug treatment. Here is the method: as §1
Data set [4] relates to SDMA. Description: SDMA Inhibition Assay in A549 cells. It counts as cell-based. The conditions noted are these: Homo sapiens, A549, 96 hours. Here is the method:
as §2

The test system of the next data set is NCI-H838 cells. Description: Pharmacodynamic study, NCI-H838 subcutaneous xenograft. It counts as in vivo, mouse. The protocol: Human non-small cell lung cancer NCI-H838 cells were cultured in monolayer in vitro using the McCoy 5A culture medium (HyClone) containing 10% fetal bovine serum (BI) and 1% penicillin and streptomycin (Beyotime) in an incubator at 37 °C with 5% CO2. The cells were digested with trypsin 2 to 3 times weekly for passaging. When the saturation degree of the cells was 80% to 90%, the cells were collected, counted, and inoculated. 5 × 10^6 (0.1 mL) NCI-H838 cells were subcutaneously inoculated on the right back of each mouse. On about day 29 after inoculation of the cells, the mean tumor volume reached 156 mm^3. The mice were randomly grouped for administration (the animals were divided into an administration group and a control group, with 6 animals in each group). The day of grouping was designated as d0, and intragastric administration was started on d1. The administration was performed once daily at an administration volume of 10 mL/kg. Vehicle control was administered to the control group. The tumor volume was measured 2 to 3 times weekly, and meanwhile, the mice were weighed and the data were recorded; daily observations were made to record the body surface signs of the mice. After the experiment was completed, the tumors were collected, weighed, and photographed for recording.
Calculation formula for tumor volume: Tumor volume (mm^3) = 1/2 × (a×b^2) [formula] (note: a represents long diameter and b represents short diameter) [formula]

The target of another data set is T1, CYP450 3A4 (Homo sapiens, UniProt P08684).
T1 construct: from tissue; host or cells: human liver microsomes
T1 sequence (P08684 whole entry): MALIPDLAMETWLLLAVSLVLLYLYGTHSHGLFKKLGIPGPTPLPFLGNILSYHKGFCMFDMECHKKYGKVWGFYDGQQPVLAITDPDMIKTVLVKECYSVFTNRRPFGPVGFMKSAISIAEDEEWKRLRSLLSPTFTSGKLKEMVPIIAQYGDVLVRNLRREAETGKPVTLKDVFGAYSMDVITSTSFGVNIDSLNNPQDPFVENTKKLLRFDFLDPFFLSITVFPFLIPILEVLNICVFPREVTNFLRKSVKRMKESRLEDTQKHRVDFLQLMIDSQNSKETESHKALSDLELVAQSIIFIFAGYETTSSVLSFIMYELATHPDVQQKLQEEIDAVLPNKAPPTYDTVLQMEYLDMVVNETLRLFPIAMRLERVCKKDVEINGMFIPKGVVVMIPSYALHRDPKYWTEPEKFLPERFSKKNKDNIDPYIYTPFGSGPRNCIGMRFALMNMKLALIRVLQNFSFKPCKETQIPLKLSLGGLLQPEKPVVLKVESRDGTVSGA
Description: Inhibition of human liver microsome CYP450 enzyme 3A4. The conditions noted are these: human, microsomes, pH 7.4. It counts as in vitro ADME. Here is the method:
100 mM K-Buffer: 9.5 mL of stock solution A was mixed with 40.5 mL of stock solution B, the total volume was adjusted to 500 mL with ultrapure water, and the buffer was titrated to pH 7.4 with KOH or H3PO4. • Starting material A (1 M potassium dihydrogen phosphate): 136.5 g of potassium dihydrogen phosphate in 1 L of water; • Stock solution B ([…]): 174.2 g of potassium dihydrogen phosphate in 1 L of water.
The test substance powder was prepared into a stock solution at a certain concentration with DMSO or another organic solvent, which was then further diluted with a suitable organic solvent.
The liver microsomal in vitro incubation system for the CYP450 enzyme metabolism phenotype study was a biochemical reaction of the prepared liver microsomes supplemented with a redox coenzyme and an enzyme-specific selective inhibitor under simulated physiological temperature and physiological environment conditions.
The concentration of the parent drug or a metabolite thereof in the incubation solution was determined by LC-MS/MS. and the IC50 value was calculated.
(Liver microsomes are a subcellular fraction often used to study metabolism.)

Take `Cn1ncc2c(N)nc3cnc(C(=O)N4CCN(C5CC5)CC4c4ccc5c(c4)OC(F)(F)O5)cc3c21` (racemic) [Example I-112]: in the data set on HCT-116, the EC50 was greater than 10000 nM. In the data set on HCT-116-MTAP^-/-, this molecule yielded an EC50 of 57 nM. The molecule further gave an EC50 in the data set with SDMA [1] of 285 nM. Also, the half-maximal effective concentration (EC50) in the data set on SDMA [2] stood at 2.9 nM. Besides, in data set [3] (1 h), the “Brain-to-blood drug concentration ratio” value was determined as 1.17, the “Drug concentration in blood” value came out at 220 ng/mL, the “Drug concentration in brain” value came to 258 ng/mL and the “Drug concentration in tumor tissue” value stood at 346 ng/mL. The “Tumor tissue-to-blood drug concentration ratio” value in data set [3] (1 h) worked out at 1.57. In addition, in data set [3] (4 h), the “Brain-to-blood drug concentration ratio” value was found to be 3.05, the “Drug concentration in blood” value was found to be 10.3 ng/mL, the “Drug concentration in brain” value amounted to 31.3 ng/mL and the “Drug concentration in tumor tissue” value is on record as 93 ng/mL. Also, the “Tumor tissue-to-blood drug concentration ratio” value in data set [3] (4 h) is on record as 9.05.

On to `Cn1ncc2c(N)nc3cc(F)c(C(=O)N(Cc4ccc5c(c4)OC(F)(F)O5)C4COC4)cc3c21` [Example I-29], for which the EC50 in the data set with HCT-116 was 1210 nM; with HCT-116-MTAP^-/-, 6.1 nM; in the data set with A549 it was 50.6 nM; with SDMA [1], 292 nM; in the data set with SDMA [2], 2.6 nM; with SDMA [4], 2.7 nM.

For `Cn1ncc2c(N)nc3cc(F)c(C(=O)N(Cc4ccc5c(c4)OC(F)(F)O5)C[C@H]4COCCO4)cc3c21` [Example I-30], the EC50 with HCT-116 was 411 nM; in the data set with HCT-116-MTAP^-/-, 6.4 nM; in the data set on A549 it was 38.5 nM; in the data set on SDMA [1], 125 nM; in the data set with SDMA [2], 2 nM; with SDMA [4], 1.9 nM.

Take `CC1OCc2c1c(N)nc1cc(F)c(C(=O)N3CCOC[C@@H]3c3ccc4c(c3)OC(F)(F)O4)cc21` (stereo partly drawn) [Example I-34]: the 50% effective concentration (EC50) is 1630 nM with HCT-116; 9 nM in the data set on HCT-116-MTAP^-/-; 70.8 nM in the data set with A549; 293 nM in the data set on SDMA [1]; 3.1 nM in the data set with SDMA [2]; 2.8 nM with SDMA [4].

On to `Cn1ncc2c(N)nc3cnc(C(=O)N(Cc4ccc5c(c4)OC(F)(F)O5)C4CC4)cc3c21` [Example I-37], for which the EC50 in the data set with HCT-116 was determined as 545 nM; in the data set with HCT-116-MTAP^-/-, 10.1 nM; with A549 it was 72.7 nM; with SDMA [1], 205 nM; with SDMA [2] it was 1.9 nM; in the data set with SDMA [4], 2.7 nM. Also, the entries for the “Day 31 TGI” value with NCI-H838 cells (10 mpk PO QD), in the data set with NCI-H838 cells (30 mpk PO QD) and in the data set on NCI-H838 cells (100 mpk PO QD) were 58%, 71% and 104%, respectively. This molecule also had an IC50 against CYP450 3A4 greater than 10 µM.

As to `Cn1ncc2c(N)nc3cc(C#N)c(C(=O)N4CCOC[C@@H]4c4ccc5c(c4)OC(F)(F)O5)cc3c21` [Example I-53], the EC50 with HCT-116 amounted to 210 nM; in the data set with HCT-116-MTAP^-/-, 5.3 nM; in the data set on A549, 15.5 nM; with SDMA [1], 68.7 nM; in the data set with SDMA [2], 0.7 nM; with SDMA [4], 1 nM.

`Cn1ncc2c(N)nc3cc(C#N)c(C(=O)N(Cc4ccc5c(c4)OC(F)(F)O5)C4CC4)cc3c21` [Example I-54]: the EC50 with HCT-116 amounted to 672 nM; in the data set with HCT-116-MTAP^-/-, 4.2 nM; in the data set on A549, 28.9 nM; with SDMA [1], 61.7 nM; in the data set on SDMA [2] it was 1.8 nM; in the data set on SDMA [4] it was 1.3 nM.

With `Cn1ncc2c(N)nc3cc(F)c(C(=O)N4CCCC[C@@H]4c4ccc5c(c4)OC(F)(F)O5)cc3c21` [Example I-80], the EC50 with HCT-116 stood at 201 nM; with HCT-116-MTAP^-/-, 4.7 nM; in the data set on A549, 12.8 nM; in the data set with SDMA [1], 65 nM; with SDMA [2], 0.9 nM; with SDMA [4] it was 2.2 nM.

With `Cn1ncc2c(N)nc3cnc(C(=O)N4CCCC[C@@H]4c4ccc5c(c4)OC(F)(F)O5)cc3c21` [Example I-111], the concentration giving a half-maximal response (EC50) with HCT-116 stood at 2170 nM; in the data set on HCT-116-MTAP^-/-, 15 nM; in the data set on A549 it was 77 nM; in the data set on SDMA [1] it was 254 nM; in the data set on SDMA [2], 1 nM; in the data set with SDMA [4] it was 1.6 nM.

By EC50 is commonly meant the midpoint of the concentration-response curve. The low end stands for higher potency in that assay, the high end for lower potency in that assay. In general, IC50 refers to the midpoint of a concentration-inhibition curve. Lower therefore signals inhibition by little substance.
